The values that follow are results of earlier work, collected in patent US6525025B2, “Gamma-ketoacid dipeptides as inhibitors of caspase-3” (Merck Frosst Canada & Co., priority 2000, dated 2003).

For one data set, the target named is T1, caspase-1 (Homo sapiens, UniProt P29466).
T1 sequence (P29466 120-297 limits assumed): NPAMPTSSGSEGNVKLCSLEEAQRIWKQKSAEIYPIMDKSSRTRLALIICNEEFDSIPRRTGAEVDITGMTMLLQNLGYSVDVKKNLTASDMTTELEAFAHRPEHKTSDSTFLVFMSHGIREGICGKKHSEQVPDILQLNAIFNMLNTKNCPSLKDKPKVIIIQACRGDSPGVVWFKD
T1 sequence (P29466 317-404 limits assumed): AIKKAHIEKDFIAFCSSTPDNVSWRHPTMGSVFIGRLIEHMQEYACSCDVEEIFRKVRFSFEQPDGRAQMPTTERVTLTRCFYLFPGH

In the next data set the target is T2, caspase-3 (Homo sapiens, UniProt P42574).
T2 sequence (P42574 29-175 limits assumed): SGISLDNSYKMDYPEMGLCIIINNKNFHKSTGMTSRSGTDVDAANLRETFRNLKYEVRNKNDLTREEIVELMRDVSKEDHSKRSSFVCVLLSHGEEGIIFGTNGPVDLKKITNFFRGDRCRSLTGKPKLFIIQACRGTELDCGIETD
T2 sequence (P42574 176-277 limits assumed): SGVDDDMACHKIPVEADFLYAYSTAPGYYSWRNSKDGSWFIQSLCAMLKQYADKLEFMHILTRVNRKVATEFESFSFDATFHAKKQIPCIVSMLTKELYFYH

As a reminder, the Ki is a measure of affinity in units of concentration, obtained from inhibition or displacement. Ac-YVAD-CHO: the Ki at caspase-1 was less than 0.001 µM; on caspase-3 it was 12 µM.
